Source: US11858958B2, “Blank liposome with ginsenoside Rg3 or its analog as membrane materials and preparations and uses thereof” (Shanghai Ginsome Pharmatech Co., Ltd., priority 2018, dated 2024)

How the values were obtained:
[1] = tested on: human breast cancer cell line (4T1); test: In vitro drug efficacy assay, cell survival rate (Rh2/PTX groups)
Procedure: Logarithmically growing tumor cells were collected and resuspended in DMEM complete medium supplemented with 10% fetal bovine serum, 100 U/ml penicillin and 100 μg/ml streptomycin to a final cell density of 4×10^4 cells/ml. Then, 200 μl cell suspension solution was seeded into each well of a 96-well plate (with a concentration of 8×10^3 cells/well) and the plate was cultured in a CO2 cell culture incubator at 37° C. […] The group without replacing DMEM complete medium by anti-cancer drug solution was used as negative control. For each concentration group, 4 replicates were set up. The whole experiment was independently repeated 3 times. The cells were continuously cultured in a CO2 cell culture incubator at 37° C. […] Then discarded the supernatant, added 150 μl DMSO into each well, and shaked the plate for 10 min. The absorbance was measured at 490 nm using a microplate reader (Tecan infinite M 200 TECAN, Switzerland). The cell survival rate is calculated according to the following formula:

[2] = tested on: human gastric cancer cells (BGC-823); test: In vitro cell viability assay; assay type: cell-based; parameters: unit not given here
Excerpt: (§1) For each concentration group, 4 replicates were set up. The whole experiment was independently repeated 3 times.

rat C6 glioma cells [3] = test: In vitro drug efficiency assay, survival rate of glioma cells; assay type: cell-based; settings: 72 h
Excerpt: as §1
The survival rate of rat glioma C6 cells with addition of Rg3 group, Rg3-blank group, PTX group, PTX+Rg3 group, PTX-Cho-Lipo group and PTX-Rg3-Gipo group at various concentrations respectively are listed in Table 11 and FIG. 12.

[4] = tested on: in-situ glioma model (C6 cells); test: Survival curve and median survival day; assay type: in vivo, nude mice
rat C6 glioma cells [5] = test: In vitro drug efficiency assay, survival rate of glioma cells; assay type: cell-based; settings: rat, 72 h

For `CC(=O)O[C@H]1C(=O)[C@@]2(C)[C@H]([C@H](OC(=O)c3ccccc3)[C@]3(O)C[C@H](OC(=O)[C@H](O)[C@@H](NC(=O)c4ccccc4)c4ccccc4)C(C)=C1C3(C)C)[C@]1(OC(C)=O)CO[C@@H]1C[C@@H]2O` [PTX, paclitaxel], the “Cell Viability” value ([1]; 4T1, C 0.00091 μM) was 106.72, the “Cell Viability” value ([1]; 4T1, C 0.00274 μM) was 94.70 and the “Cell Viability” value ([1]; 4T1, C 0.00823 μM) was 59.19. The “Cell Viability” value ([1]; 4T1, C 0.02469 μM) was 55.83, the “Cell Viability” value ([1]; 4T1, C 0.07407 μM) was 49.25 and the “Cell Viability” value ([1]; 4T1, C 0.22222 μM) was 48.48. The “Cell Viability” value ([1]; 4T1, C 0.66667 μM) was 48.54, the “Cell Viability” value ([1]; 4T1, C 2.00000 μM) was 52.00 and the “Cell Viability” value ([2]; listed as 1 of 9, PTX series C 0.0027-6 μg/mL ascending (8 levels)) was 91.9. The “Cell Viability” value ([2]; listed as 2 of 9, PTX series C 0.0027-6 μg/mL ascending (8 levels)) was 80.5, the “Cell Viability” value ([2]; listed as 3 of 9, PTX series C 0.0027-6 μg/mL ascending (8 levels)) was 60.9 and the “Cell Viability” value ([2]; listed as 4 of 9, PTX series C 0.0027-6 μg/mL ascending (8 levels)) was 50.3. The “Cell Viability” value ([2]; listed as 5 of 9, PTX series C 0.0027-6 μg/mL ascending (8 levels)) was 41.6, the “Cell Viability” value ([2]; listed as 6 of 9, PTX series C 0.0027-6 μg/mL ascending (8 levels)) was 42.7 and the “Cell Viability” value ([2]; listed as 7 of 9, PTX series C 0.0027-6 μg/mL ascending (8 levels)) was 38.0. The “Cell Viability” value ([2]; listed as 8 of 9, PTX series C 0.0027-6 μg/mL ascending (8 levels)) was 33.2, the “Cell Viability” value ([2]; listed as 9 of 9, PTX series C 0.0027-6 μg/mL ascending (8 levels)) was 32.2 and the “Cell Viability” value (rat C6 glioma cells [3]; 0.0046 μg/ml) was 73.2867. The “Cell Viability” value (rat C6 glioma cells [3]; 0.0412 μg/ml) was 60.49, the “Cell Viability” value (rat C6 glioma cells [3]; 0.1235 μg/ml) was 49.91 and the “Cell Viability” value (rat C6 glioma cells [3]; 0.37 μg/ml) was 45.98. The “Cell Viability” value (rat C6 glioma cells [3]; 1.111 μg/ml) was 43.89, the “Cell Viability” value (rat C6 glioma cells [3]; 3.333 μg/ml) was 43.21 and the “Median survial” value ([4]; tail vein 10 mg·kg^−1) was 27 days. For the same compound, the “number of survived mice” value ([4]; tail vein 10 mg·kg^−1, Time 12 d) was 10, the “number of survived mice” value ([4]; tail vein 10 mg·kg^−1, Time 14 d) was 10 and the “number of survived mice” value ([4]; tail vein 10 mg·kg^−1, Time 16 d) was 9. The “number of survived mice” value ([4]; tail vein 10 mg·kg^−1, Time 18 d) was 8, the “number of survived mice” value ([4]; tail vein 10 mg·kg^−1, Time 20 d) was 7 and the “number of survived mice” value ([4]; tail vein 10 mg·kg^−1, Time 22 d) was 6. For the same compound, the “number of survived mice” value ([4]; tail vein 10 mg·kg^−1, Time 24 d) was 6, the “number of survived mice” value ([4]; tail vein 10 mg·kg^−1, Time 26 d) was 5 and the “number of survived mice” value ([4]; tail vein 10 mg·kg^−1, Time 28 d) was 4. For the same compound, the “number of survived mice” value ([4]; tail vein 10 mg·kg^−1, Time 30 d) was 4, the “number of survived mice” value ([4]; tail vein 10 mg·kg^−1, Time 32 d) was 4 and the “number of survived mice” value ([4]; tail vein 10 mg·kg^−1, Time 34 d) was 3. The “number of survived mice” value ([4]; tail vein 10 mg·kg^−1, Time 36 d) was 1, the “number of survived mice” value ([4]; tail vein 10 mg·kg^−1, Time 38 d) was 1 and the “number of survived mice” value ([4]; tail vein 10 mg·kg^−1, Time 40 d) was 0. For the same compound, the “number of survived mice” value ([4]; tail vein 10 mg·kg^−1, Time 42 d) was 0, the “number of survived mice” value ([4]; tail vein 10 mg·kg^−1, Time 44 d) was 0 and the “number of survived mice” value ([4]; tail vein 10 mg·kg^−1, Time 46 d) was 0. For the same compound, the “number of survived mice” value ([4]; tail vein 10 mg·kg^−1, Time 48 d) was 0, the “number of survived mice” value ([4]; tail vein 10 mg·kg^−1, Time 50 d) was 0 and the “number of survived mice” value ([4]; tail vein 10 mg·kg^−1, Time 52 d) was 0. For the same compound, the “number of survived mice” value ([4]; tail vein 10 mg·kg^−1, Time 54 d) was 0, the “number of survived mice” value ([4]; tail vein 10 mg·kg^−1, Time 56 d) was 0 and the “number of survived mice” value ([4]; tail vein 10 mg·kg^−1, Time 58 d) was 0. For the same compound, the “number of survived mice” value ([4]; tail vein 10 mg·kg^−1, Time 60 d) was 0, the “number of survived mice” value ([4]; tail vein 10 mg·kg^−1, Time 62 d) was 0 and the “Cell Viability” value (rat C6 glioma cells [5]; 0.0005 μg/ml) was 100. The “Cell Viability” value (rat C6 glioma cells [5]; 0.0015 μg/ml) was 79.49, the “Cell Viability” value (rat C6 glioma cells [5]; 0.0137 μg/ml) was 65.36 and the “Cell Viability” value (rat C6 glioma cells [5]; 10 μg/ml) was 39.59.
